The target in one data set is hLAG-3/hFGL-1 (Homo sapiens, UniProt P18627+Q08830). Description: Blockade of other immune checkpoint pathways, LAG-3/FGL-1. Type of data set: cell-based. The settings on record: Fig. S2.
Data set [1] has as its system GFP+ MC38 cells phagocytosed by BMDMs. Description: Phagocytosis assay, BMDMs with GFP+ MC38 cells. Type of data set: cell-based, mouse. Conditions: 50 μM. How it is done: Bone marrow-derived macrophage cells (BMDMs) from C57BL/6N mice were isolated and induced with 20 ng/mL of mouse granulocyte–macrophage colony-stimulating factor (GM-CSF, 315–03, Peprotech) for 7 days, with regular medium changes and cytokine replenishment during cell induction. The cells were then harvested for subsequent experiments. Subsequently, the cells were treated with SMC18 at a concentration of 50 μΜ. The anti-CD47 antibody (clone miap301, 16–0471-81, Invitrogen) was employed as a positive control with 20 µg/mL. Phagocytosis was measured by the co-culture of macrophages with green fluorescent protein (GFP^+) tumor cells (GFP^+ MC38 and GFP^+ B16-OVA cells) at a ratio of 1:4 in serum-free medium at 37 °C for 4 h. The cells were harvested and identified by flow cytometry using anti-F4/80 antibody (BM8, 17–4801-82, eBioscience). The phagocytosis rate was calculated as the percentage F4/80^+GFP^+ cells relative to the total number of total F4/80^+ cells. For confocal microscopy detection, BMDMs were labelled with DiR dye (R-22070, Beyotime) at a final concentration of 200 μM, followed by a 30-min staining period. After washing with PBS three times, the cells were cultured with DMEM medium devoid of serum for 2 h. Subsequently, MC38-EGFP cells were seeded onto BMDMs at a density of 4 × 10^6 cells per well. […]

For the next data set, the system named is PD-1. As to the kind of experiment: Tyrosine phosphorylation assay of PD-1, Jurkat/CHO-K1-hPD-L1 co-culture. Type of data set: cell-based, human. The settings on record: 50 μM, stimulated Jurkat with CHO-K1-hPD-L1 cells, 30 min, Western blotting. The procedure: Jurkat cells were stimulated with of PMA (25 ng/mL) and PHA (1 μg/mL) for 24 h. Stimulated Jurkat cells (2 × 10^6 cells/well) were co-cultured with CHO-K1-PD-L1 cells (1 × 10^7 cells/well). The co-cultures were treated with PBS, SMC18 (50 μM), or anti-human PD-1 (a17188b, Biolegend) and incubated at 37℃ for 30 min. After PBS washing, the cells were collected by centrifugation and lysed. Finally, cell lysates were collected for immunoprecipitation and Western blotting.
In brief, the protein samples were separated by SDS-PAGE using a 4% stacking gel and an 8 ~ 10% main gel and transferred to a polyvinylidene difluoride (PVDF) membrane. The membrane was blocked with 5% milk at room temperature for 1–2 h and then incubated with anti-SIRPα (dilution 1:1000, AB8120, Abcam), anti-PD-1 (dilution 1:200, ab52587, Abcam) or anti-Phosphotyrosine (dilution 1:1000, 05–321, Millipore) dissolved in primary antibody dilution buffer overnight at 4 °C. Then the membrane was washed and incubated with appropriate HRP-coupled goat anti-rabbit IgG (D110058, Sangon Biotech) and HRP-coupled goat anti-mouse IgG (D110087, Sangon Biotech) for 1–2 h at room temperature. Finally, the membranes were exposed using an enhanced chemiluminescence (ECL) detection kit (P1030, Applygen). Results were analyzed by ImageJ software (NIH, Bethesda, MD, United States).
On the technique in general: In western blotting, separated proteins are transferred to a membrane and probed.

For data set [2], the system named is MC38 tumor-bearing mice. As to the kind of experiment: MC38 tumor model. Type of data set: in vivo, mouse. The settings on record: 2 or 6 mg/kg i.p. daily for 14 days. How it is done: The animal studies were conducted in accordance with the guidelines and approved by the Ethics Committee of Zhengzhou University (ZZUIRB 2021–36). Six weeks old female mice were purchased from the Vital River Laboratory (Beijing, China). Mouse MC38 colorectal cancer cells (1 × 10^6) were harvested and subcutaneously (s.c.) injected into the right abdomen of the mice. When the tumor size reached 40 ~ 80 mm^3, the mice were randomly assigned into three groups (n = 5 per group) to receive intraperitoneal injections daily of SMC18 (2 mg/kg), SMC18 (6 mg/kg) or normal saline for 14 days. At day 23, mice were euthanized for ex vivo analysis.

The test system of data set [3] is MC38 tumor-bearing mice. As to the kind of experiment: Ex vivo flow cytometry of immune cells from MC38 tumor-bearing mice. Type of data set: in vivo, mouse. The settings on record: SMC18 treatment vs NS. How it is done: At the end of treatment, the tumor-bearing mice were euthanized, and the tumor tissues were removed, minced and enzymatically digested with DNAase I (DN25, Sigma) and collagenase IV (17,104–019, Invitrogen) at 37 °C for 40 min. The digested tumor suspensions were filtered by nylon filter. Immune cell infiltration in the tumor tissue was analyzed by flow cytometry. For the detection of CD8^+ T cells at the tumor site, single-cell suspensions were stained with anti-mouse CD45-FITC (30-F11, eBioscience), anti-mouse CD3-PerCP-eFluor710 (17A2, eBioscience), anti-mouse CD8α-PE (53–6.7, eBioscience) or isotype control. To detect macrophage infiltration at tumor sites, single cell suspensions were stained with anti-mouse CD45-FITC (30-F11, eBioscience), anti-mouse CD11b-eFluor450 (M1/70, eBioscience), anti-mouse F4/80-PerCP-Cyanine5.5 (BM8, eBioscience), anti-mouse CD11c-APC (M418, eBioscience), anti-mouse CD206-PE (MR6F3, eBioscience) or isotype control.
To assess cytokine secretion from tumor sites and immune organs, spleens, draining lymph nodes and tumors from mice were dissected and ground into single cell suspensions, followed by filtration and incubation with […] transport inhibitors, PMA (20 ng/mL, 16561–29-8, Sigma) and ionomycin (1 µM, I0634, Sigma) for 4 h in a 37 °C incubator. The single cell suspensions of draining lymph nodes and spleens were stained with anti-mouse CD3-PerCP-eFluor710 (17A2, eBioscience), anti-mouse CD8α-PE (53–6.7, eBioscience), anti-mouse IFN-γ-APC (XMG1.2, eBioscience) or isotype control. Tumor cells were stained with anti-mouse CD45-FITC (30-F11, eBioscience), anti-mouse CD3-PerCP-eFluor710 (17A2, eBioscience), anti-mouse CD8α-PE (53–6.7, eBioscience), anti-mouse IFN-γ-APC (XMG1.2, eBioscience) or isotype control. Finally, the samples were detected by flow cytometry.

Each structure is given as a SMILES string. Entries after “also recorded” stand apart in the source; their conditions may differ.

Chain of hLAG-3/hFGL-1 (P18627 23-525): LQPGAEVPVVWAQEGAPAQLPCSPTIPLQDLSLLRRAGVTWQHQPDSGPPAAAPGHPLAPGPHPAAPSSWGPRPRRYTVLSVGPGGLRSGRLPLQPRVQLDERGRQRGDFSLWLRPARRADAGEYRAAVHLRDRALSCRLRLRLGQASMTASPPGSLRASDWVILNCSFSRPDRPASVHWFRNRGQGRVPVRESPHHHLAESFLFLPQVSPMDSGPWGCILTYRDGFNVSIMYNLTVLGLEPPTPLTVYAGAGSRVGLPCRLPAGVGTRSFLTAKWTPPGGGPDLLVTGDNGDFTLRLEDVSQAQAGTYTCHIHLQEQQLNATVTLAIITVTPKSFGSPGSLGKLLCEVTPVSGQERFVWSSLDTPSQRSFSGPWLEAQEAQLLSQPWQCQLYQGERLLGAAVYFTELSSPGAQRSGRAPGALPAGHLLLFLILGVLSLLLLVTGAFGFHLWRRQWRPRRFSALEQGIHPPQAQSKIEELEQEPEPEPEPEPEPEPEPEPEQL
Chain of hLAG-3/hFGL-1 (Q08830 23-312): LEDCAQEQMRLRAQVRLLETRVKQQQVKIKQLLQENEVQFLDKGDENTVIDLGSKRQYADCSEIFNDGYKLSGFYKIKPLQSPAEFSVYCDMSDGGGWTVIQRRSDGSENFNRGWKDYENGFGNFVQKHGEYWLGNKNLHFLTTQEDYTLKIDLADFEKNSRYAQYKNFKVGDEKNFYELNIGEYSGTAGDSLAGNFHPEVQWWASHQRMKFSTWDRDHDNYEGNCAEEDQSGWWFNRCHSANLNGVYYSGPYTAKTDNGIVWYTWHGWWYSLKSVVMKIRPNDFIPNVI

Regarding `Cc1cc(C)cc(NS(=O)(=O)c2ccc3[nH]cc(C(=O)NCCc4ccccc4)c(=O)c3c2)c1` [SMC18], the “inhibitory effect on hLAG-3/hFGL-1 pathway” value at hLAG-3/hFGL-1 is recorded as “no blocking effect; also recorded: did not impede”. Further, the “phagocytosis of MC38 by BMDMs (flow cytometry)” value in data set [1] (4 h) is “significantly increased”. In addition, in data set [1] (DiR-labelled BMDMs, MC38-EGFP, vs control group), the “macrophage phagocytosis of MC38 cells (confocal)” value is “significantly enhanced”. Further, in the data set on PD-1, the “levels of phosphorylated PD-1” value is given as “decreased”. In the data set on MC38 tumor-bearing mice [2], the “body weight of tumor-bearing mice” value is reported as “without affecting” and the “growth of MC38 tumors” value is recorded as “effectively delayed”. Moreover, in the data set on MC38 tumor-bearing mice [3] (MC38 tumor), the “amount of CD8+ T cell secreting IFN-γ in the tumor tissue” value is “significantly increased” and the “infiltration of CD8+ T cells in the tumor tissue” value is reported as “significantly increased”. In the data set with MC38 tumor-bearing mice [3], the “amount of CD8+ T secreting IFN-γ in the draining lymph nodes” value was “increased”, the “amount of CD8+ T secreting IFN-γ in the spleen” value was “increased” and the “proportion of M1-type macrophages in tumor” value is “increased”.

(Values after PMC10926604, “Discovery of a novel small molecule as CD47/SIRPα and PD-1/PD-L1 dual inhibitor for cancer immunotherapy” (Cell Communication and Signaling : CCS, 2024).)
